Reference: PubChem BioAssay (NCI)
“And” between values parts separate entries of the source, which are not always exact repeats. Equal entries are not always repeated.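 Protocol summary: plate cells (96-well), add compound at 5 concentrations, incubate 48 h, interpolate endpoints linearly. Here, GI50 denotes the concentration required for 50% inhibition of growth. At the TGI there is no net growth.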

What was measured:
Assay in all cases: inhibition of tumour cell growth, NCI panel, 48 h
[1] = test system: OVCAR-5 ovarian
[2] = test system: CCRF-CEM leukemia
[3] = test system: UO-31 renal
[4] = test system: OVCAR-4 ovarian
[5] = test system: SK-MEL-5 melanoma
[6] = test system: 786-0 renal
[7] = test system: SK-MEL-2 melanoma
[8] = test system: TK-10 renal
[9] = test system: KM12 colon
[10] = test system: UACC-257 melanoma
[11] = test system: COLO 205 colon
[12] = test system: MDA-MB-435
[13] = test system: MCF7 breast
[14] = test system: LOX IMVI melanoma
[15] = test system: HOP-62 NSCLC
[16] = test system: MDA-N
[17] = test system: A498 renal
[18] = test system: SW-620 colon
[19] = test system: RXF 393 renal
[20] = test system: HOP-92 NSCLC
[21] = test system: HCT-116 colon
[22] = test system: SF-295 CNS
[23] = test system: RPMI-8226 leukemia
[24] = test system: HCT-15 colon
[25] = test system: SK-OV-3 ovarian
[26] = test system: BT-549 breast
[27] = test system: CAKI-1 renal
[28] = test system: U251 CNS
[29] = test system: UACC-62 melanoma
[30] = test system: HT29 colon
[31] = test system: K-562 leukemia
[32] = test system: SR leukemia
[33] = test system: SK-MEL-28 melanoma
[34] = test system: SN12C renal
[35] = test system: DU-145 prostate
[36] = test system: NCI-H522 lung
[37] = test system: SF-268 CNS
[38] = test system: NCI-H226 lung
[39] = test system: HL-60(TB) leukemia
[40] = test system: SNB-19 CNS
[41] = test system: NCI-H460 lung
[42] = test system: IGROV1 ovarian
[43] = test system: MDA-MB-231 breast
[44] = test system: PC-3 prostate
[45] = test system: MALME-3M melanoma
[46] = test system: EKVX NSCLC
[47] = test system: NCI-H23 lung
[48] = test system: ACHN renal
[49] = test system: HCC-2998 colon

## CC(C)=CCCC1(C)C2COC(=O)C21 (centres undefined)
[1]
  TGI: > 100 µM
[2]
  GI50: 39.3 µM and 12.3 µM
  TGI: > 100 µM and 52.6 µM
[3]
  TGI: > 100 µM
[4]
  TGI: > 100 µM
[5]
  GI50: > 100 µM and 17.5 µM
  TGI: > 100 µM and 34.6 µM
[6]
  TGI: > 100 µM
[7]
  TGI: > 100 µM
[8]
  TGI: > 100 µM
[9]
  GI50: > 100 µM and 42.1 µM
  TGI: > 100 µM
[10]
  TGI: > 100 µM
[11]
  GI50: > 100 µM and 34.2 µM
  TGI: > 100 µM
[12]
  GI50: > 100 µM and 43.6 µM
  TGI: > 100 µM
[13]
  TGI: > 100 µM
[14]
  GI50: 38.8 µM and 19 µM
  TGI: > 100 µM and 34.7 µM
[15]
  GI50: > 100 µM and 27.6 µM
  TGI: > 100 µM and 75.4 µM
[16]
  GI50: > 100 µM and 31.7 µM
  TGI: > 100 µM
[17]
  TGI: > 100 µM
[18]
  TGI: > 100 µM
[19]
  TGI: > 100 µM
[20]
  GI50: > 100 µM and 34.2 µM
  TGI: > 100 µM and 97.3 µM
[21]
  GI50: > 100 µM and 19.8 µM
  TGI: > 100 µM and 35.4 µM
[22]
  TGI: > 100 µM
[23]
  TGI: > 100 µM
[24]
  GI50: > 100 µM and 37 µM
  TGI: > 100 µM
[25]
  TGI: > 100 µM
[26]
  TGI: > 100 µM
[27]
  GI50: > 100 µM and 16 µM
  TGI: > 100 µM and 30.7 µM
[28]
  GI50: > 100 µM and 43.5 µM
  TGI: > 100 µM
[29]
  TGI: > 100 µM
[30]
  TGI: > 100 µM
[31]
  TGI: > 100 µM and 27.4 µM
[32]
  GI50: > 100 µM
  TGI: > 100 µM
[33]
  TGI: > 100 µM
[34]
  GI50: 52.8 µM and 19.3 µM
  TGI: > 100 µM and 39.9 µM
[35]
  TGI: > 100 µM
[36]
  GI50: > 100 µM and 47.2 µM
  TGI: > 100 µM
[37]
  TGI: > 100 µM
[38]
  GI50: > 100 µM
  TGI: > 100 µM
[39]
  GI50: 43.3 µM and 18.8 µM
  TGI: > 100 µM and 40.9 µM
[40]
  TGI: > 100 µM
[41]
  GI50: > 100 µM and 19.3 µM
  TGI: > 100 µM and 34.1 µM
[42]
  TGI: > 100 µM
[43]
  TGI: > 100 µM
[44]
  TGI: > 100 µM
[45]
  TGI: > 100 µM
[46]
  TGI: > 100 µM
[47]
  GI50: > 100 µM and 26.7 µM
  TGI: > 100 µM and 60.1 µM
[48]
  TGI: > 100 µM
[49]
  TGI: > 100 µM
